# Source: paper PMC8426237, “A first-in-human phase I study of TAS0728, an oral covalent binding inhibitor of HER2, in patients with advanced solid tumors with HER2 or HER3 aberrations” (Investigational New Drugs, 2021)
# Assay: Phase I safety assessment: adverse events (CTCAE v5.0) in patients
# [1] = Dose Level 3: 200 mg BID (N = 7)
# [2] = Dose Level 3d: 150 mg BID (N = 6)
# [3] = all treated population, overall
# Experimental: A DLT was defined as a study treatment-related adverse event (TRAE), according to the Common Terminology Criteria for Adverse Events (CTCAE, Version 5.0), with qualifying criteria for certain DLTs (e.g., Grade ≥ 3 diarrhea, was included as a DLT only if lasting >48 h and unresponsive to intensive antidiarrheal medication).
# Patients were closely monitored for these potential toxicities during the current study. Safety assessments included recording of AEs and serious AEs (SAEs) from the time of signing the study informed consent form to 30 days after the last dose of study medication. Safety parameters including laboratory evaluations (hematology, coagulation, chemistry, and urinalysis), vital sign measurements and body weight, electrocardiogram (ECG) recordings, ECOG performance status, echocardiogram or multi-gated acquisition (MUGA), and physical examination were assessed at screening, during the study and at 30 days following the last dose. The use of concomitant medications was permitted and details for such medications were recorded.
smiles,measurement,setting,value
C=CC(=O)N1CCC[C@@H](n2nc(C(=O)Nc3ccc(CC(=O)N(C)C)c(C)c3C)c3c(N)ncnc32)C1 [TAS0728],"Dermatitis acneiform, ≥Grade 3",[1],0 n (%)
same,"Diarrhea, Grade 1",[1],5 (71.4) n (%)
same,"Diarrhea, Grade 2",[1],5 (71.4) n (%)
same,"Diarrhea, Grade 3",[1],3 (42.9) n (%)
same,"Diarrhea, Grade 4",[1],0 n (%)
same,"Diarrhea, Grade 5",[1],0 n (%)
same,"Diarrhea, Total",[1],6 (85.7) n (%)
same,"Diarrhea, ≥Grade 3",[1],3 (42.9) n (%)
same,"Dry skin, Grade 1",[1],2 (28.6) n (%)
same,"Dry skin, Grade 2",[1],0 n (%)
same,"Dry skin, Grade 3",[1],0 n (%)
same,"Dry skin, Grade 4",[1],0 n (%)
same,"Dry skin, Grade 5",[1],0 n (%)
same,"Dry skin, Total",[1],2 (28.6) n (%)
same,"Dry skin, ≥Grade 3",[1],0 n (%)
same,"Fatigue, Grade 1",[1],1 (14.3) n (%)
same,"Fatigue, Grade 2",[1],3 (42.9) n (%)
same,"Fatigue, Grade 3",[1],0 n (%)
same,"Fatigue, Grade 4",[1],0 n (%)
same,"Fatigue, Grade 5",[1],0 n (%)
same,"Fatigue, Total",[1],3 (42.9) n (%)
same,"Fatigue, ≥Grade 3",[1],0 n (%)
same,"Hypokalemia, Grade 1",[1],2 (28.6) n (%)
same,"Hypokalemia, Grade 2",[1],0 n (%)
same,"Hypokalemia, Grade 3",[1],0 n (%)
same,"Hypokalemia, Grade 4",[1],0 n (%)
same,"Hypokalemia, Grade 5",[1],0 n (%)
same,"Hypokalemia, Total",[1],2 (28.6) n (%)
same,"Hypokalemia, ≥Grade 3",[1],0 n (%)
same,"Nausea, Grade 1",[1],1 (14.3) n (%)
same,"Nausea, Grade 2",[1],2 (28.6) n (%)
same,"Nausea, Grade 3",[1],0 n (%)
same,"Nausea, Grade 4",[1],0 n (%)
same,"Nausea, Grade 5",[1],0 n (%)
same,"Nausea, Total",[1],2 (28.6) n (%)
same,"Nausea, ≥Grade 3",[1],0 n (%)
same,"Oedema peripheral, Grade 1",[1],2 (28.6) n (%)
same,"Oedema peripheral, Grade 2",[1],0 n (%)
same,"Oedema peripheral, Grade 3",[1],0 n (%)
same,"Oedema peripheral, Grade 4",[1],0 n (%)
same,"Oedema peripheral, Grade 5",[1],0 n (%)
same,"Oedema peripheral, Total",[1],2 (28.6) n (%)
same,"Oedema peripheral, ≥Grade 3",[1],0 n (%)
same,"Pyrexia, Grade 1",[1],2 (28.6) n (%)
same,"Pyrexia, Grade 2",[1],1 (14.3) n (%)
same,"Pyrexia, Grade 3",[1],0 n (%)
same,"Pyrexia, Grade 4",[1],0 n (%)
same,"Pyrexia, Grade 5",[1],0 n (%)
same,"Pyrexia, Total",[1],3 (42.9) n (%)
same,"Pyrexia, ≥Grade 3",[1],0 n (%)
same,"Vomiting, Grade 1",[1],1 (14.3) n (%)
same,"Vomiting, Grade 2",[1],1 (14.3) n (%)
same,"Vomiting, Grade 3",[1],0 n (%)
same,"Vomiting, Grade 4",[1],0 n (%)
same,"Vomiting, Grade 5",[1],0 n (%)
same,"Vomiting, Total",[1],2 (28.6) n (%)
same,"Vomiting, ≥Grade 3",[1],0 n (%)
same,"Adverse events experienced in ≥10% patients, Grade 1",[2],5 (83.3) n (%)
same,"Adverse events experienced in ≥10% patients, Grade 2",[2],5 (83.3) n (%)
same,"Adverse events experienced in ≥10% patients, Grade 3",[2],3 (50.0) n (%)
same,"Adverse events experienced in ≥10% patients, Grade 4",[2],0 n (%)
same,"Adverse events experienced in ≥10% patients, Grade 5",[2],1 (16.7) n (%)
same,"Adverse events experienced in ≥10% patients, Total",[2],6 (100) n (%)
same,"Adverse events experienced in ≥10% patients, ≥Grade 3",[2],3 (50.0) n (%)
same,"Back pain, Grade 1",[2],1 (16.7) n (%)
same,"Back pain, Grade 2",[2],1 (16.7) n (%)
same,"Back pain, Grade 3",[2],0 n (%)
same,"Back pain, Grade 4",[2],0 n (%)
same,"Back pain, Grade 5",[2],0 n (%)
same,"Back pain, Total",[2],2 (33.3) n (%)
same,"Back pain, ≥Grade 3",[2],0 n (%)
same,"Diarrhea, Grade 1",[2],2 (33.3) n (%)
same,"Diarrhea, Grade 2",[2],1 (16.7) n (%)
same,"Diarrhea, Grade 3",[2],2 (33.3) n (%)
same,"Diarrhea, Grade 4",[2],0 n (%)
same,"Diarrhea, Grade 5",[2],0 n (%)
same,"Diarrhea, Total",[2],4 (66.7) n (%)
same,"Diarrhea, ≥Grade 3",[2],2 (33.3) n (%)
same,"Pyrexia, Grade 1",[2],0 n (%)
same,"Pyrexia, Grade 2",[2],2 (33.3) n (%)
same,"Pyrexia, Grade 3",[2],0 n (%)
same,"Pyrexia, Grade 4",[2],0 n (%)
same,"Pyrexia, Grade 5",[2],0 n (%)
same,"Pyrexia, Total",[2],2 (33.3) n (%)
same,"Pyrexia, ≥Grade 3",[2],0 n (%)
same,"Vomiting, Grade 1",[2],2 (33.3) n (%)
same,"Vomiting, Grade 2",[2],0 n (%)
same,"Vomiting, Grade 3",[2],0 n (%)
same,"Vomiting, Grade 4",[2],0 n (%)
same,"Vomiting, Grade 5",[2],0 n (%)
same,"Vomiting, Total",[2],2 (33.3) n (%)
same,"Vomiting, ≥Grade 3",[2],0 n (%)
same,Patients with AEs,Overall (N = 19),"19 (100) n, (%)"
same,Patients with AEs that had an outcome of death,Overall (N = 19),"1 (5.3) n, (%)"
same,Patients with AEs that led to study treatment discontinuation,Overall (N = 19),"3 (15.8) n, (%)"
same,Patients with Grade ≥ 3 AEs,Overall (N = 19),"9 (47.4) n, (%)"
same,Patients with SAEs,Overall (N = 19),"8 (42.1) n, (%)"
same,Patients with treatment-related AEs,Overall (N = 19),"17 (89.5) n, (%)"
same,Patients with treatment-related and Grade ≥ 3 AEs,Overall (N = 19),"6 (31.6) n, (%)"
same,Patients who died during the study,all dose levels,4
same,Patients who experienced an AE during the study,"all treated population, all 19 patients",100.0%
same,TRAE incidence: diarrhea,[3],78.9%
same,TRAE incidence: fatigue,[3],21.1%
same,TRAE incidence: nausea,[3],21.1%
same,TRAE incidence: vomiting,[3],21.1%
same,TRAEs considered ≥Grade 3 in severity,[3],31.6%
same,≥Grade 3 TRAE incidence: diarrhea,[3],26.3%
same,Patients with an SAE considered related to study drug,"all treated population, three of 19, diarrhea (200- and 150-mg BID), cardiac arrest (150 mg BID)",15.8%
same,Changes from baseline in clinical laboratory results and standard 12-lead ECG parameters,during the study,No clinically meaningful changes from baseline
same,Patients who experienced an AE that led to study drug discontinuation,"in total, all dose levels",4
same,"Deaths >30 days after the last dose of study treatment, all due to clinical progression",of 4 deaths,3
same,Patients who experienced ≥1 SAE,"overall population, 8 of 19",42.1%
same,Patients with an SAE Grade 3 or higher in severity,"overall population, five patients",26.3%
same,SAE incidence: acute kidney injury,"overall, 1 patient",5.3%
same,SAE incidence: back pain,"overall, 1 patient",5.3%
same,SAE incidence: cardiac arrest,"overall, 1 patient",5.3%
same,SAE incidence: cellulitis,"overall, 1 patient",5.3%
same,SAE incidence: clostridium colitis,"overall, 1 patient",5.3%
same,SAE incidence: dysphagia,"overall, 1 patient",5.3%
same,≥Grade 3 TRAE incidence: acute kidney injury,"overall, 1 patient",5.3%
same,≥Grade 3 TRAE incidence: cardiac arrest,"overall, 1 patient",5.3%
same,≥Grade 3 TRAE incidence: proteinuria,"overall, 1 patient",5.3%
same,SAE incidence: diarrhea,"overall, 2 patients",10.5%
same,SAE incidence: pyrexia,"overall, 4 patients (2 each at 200 mg and 150 mg BID)",21.1%
same,Patients with diarrhea at a severity ≥Grade 3,reduced dose of 150 mg BID,2
same,Patients with diarrhea,"reduced dose of 150 mg BID, 4 of 6",66.7%
